Measurements as given in ChEMBL document CHEMBL5370544, “Design, synthesis, and biological evaluation of 1-styrenyl isoquinoline derivatives for anti-hepatocellular carcinoma activity and effect on mitochondria” (Eur J Med Chem, 2023).
Active and inactive are the calls of the source. The rule behind the calls is not given here.

Tests used:
HCCLM9 = assay: Antiproliferative activity against human HCCLM9 cells assessed as inhibition of cell growth measured after 72 hrs by MTT assay; assay type: functional, cell-based; conditions: HCCLM9, 72 h
HepG2 = assay: Antiproliferative activity against human HepG2 cells assessed as inhibition of cell growth measured after 72 hrs by MTT assay; assay type: functional, cell-based; conditions: HepG2, 72 h
Huh-7 [1] = assay: Antiproliferative activity against human Huh-7 cells assessed as inhibition of cell growth upto 2 uM by MTT assay; assay type: functional, cell-based; conditions: time 72.0 hrs, TDE = time-dependent effect
Huh-7 [2] = assay: Inhibition of colony formation in human Huh-7 cells assessed as reduction in number of cell colonies at 0.55 to 2.2 uM measured after 10 and 14 days by crystal violet staining based light microscopic analysis; assay type: functional; conditions: dose 0.55-2.2 µM, time 14.0 day
SK-HEP1 [3] = assay: Inhibition of colony formation in human SK-HEP1 cells assessed as reduction in number of cell colonies at 1.25 to 5 uM measured after 10 and 14 days by crystal violet staining based light microscopic analysis; assay type: functional; conditions: dose 1.25-5 µM, time 14.0 day
Huh-7 [4] = assay: Antiproliferative activity against human Huh-7 cells assessed as reduction in ratio of EdU-positive cells measured after 24 hrs by EdU incorporation assay; assay type: functional, cell-based; conditions: dose 0.55-2.2 µM
SK-HEP1 [5] = assay: Induction of cell cycle arrest in human SK-HEP1 cells assessed as decrease in accumulation of cells at G0/G1 phase incubated for 24 hrs by propidium iodide staining based flow cytometry analysis; assay type: functional; conditions: dose 1.5-13.5 µM
SK-HEP1 [6] = assay: Induction of cell cycle arrest in human SK-HEP1 cells assessed as decrease in cyclin A expression incubated for 48 hrs by Western blotting analysis; assay type: functional, cell-based; conditions: dose 1.5-13.5 µM
SK-HEP1 [7] = assay: Inhibition of cell migration in human SK-HEP1 cells at 1.25 to 5 uM incubated for 24 hrs by crystal violet staining based transwell migration assay; assay type: functional; conditions: dose 1.25-5 µM
SK-HEP1 [8] = assay: Antiinvasive activity in human SK-HEP1 cells assessed as reduction in number of invasive cells at 1.25 to 5 uM incubated for 24 hrs by transwell invasion assay; assay type: functional, cell-based; conditions: dose 1.25-5 µM
Huh-7 [9] = assay: Antimigratory activity against human Huh-7 cells assessed as down-regulation of N-cadherin expression at 0.55 to 2.2 uM incubated 24 hrs by Western blotting analysis; assay type: functional, cell-based; conditions: dose 0.55-2.2 µM
Huh-7 [10] = assay: Induction of apoptosis in human Huh-7 cells assessed as cell shrinkage at 0.9 to 8.1 uM incubated for 24 hrs by giemsa staining based micrscopic analysis; assay type: functional; conditions: dose 0.9-8.1 µM
Huh-7 [11] = assay: Induction of apoptosis in human Huh-7 cells assessed as cell membrane blebbing at 0.9 to 8.1 uM incubated for 24 hrs by giemsa staining based micrscopic analysis; assay type: functional; conditions: dose 0.9-8.1 µM
Huh-7 [12] = assay: Induction of apoptosis in human Huh-7 cells assessed as genomic DNA fragmentation at 0.9 to 8.1 uM incubated for 24 hrs by giemsa staining based micrscopic analysis; assay type: functional, cell-based; conditions: dose 0.9-8.1 µM
Huh-7 [13] = assay: Induction of apoptosis in human Huh-7 cells assessed as formation of apoptotic bodies at 0.9 to 8.1 uM incubated for 24 hrs by giemsa staining based micrscopic analysis; assay type: functional, cell-based; conditions: dose 0.9-8.1 µM
SK-HEP1 [14] = assay: Induction of apoptosis in human SK-HEP1 cells assessed as cell membrane blebbing at 1.5 to 13.5 uM incubated for 24 hrs by giemsa staining based micrscopic analysis; assay type: functional; conditions: dose 1.5-13.5 µM
SK-HEP1 [15] = assay: Induction of apoptosis in human SK-HEP1 cells assessed as nuclear membrane breakdown at 1.5 to 13.5 uM incubated for 24 hrs by giemsa staining based micrscopic analysis; assay type: functional, cell-based; conditions: dose 1.5-13.5 µM
SK-HEP1 [16] = assay: Induction of apoptosis in human SK-HEP1 cells assessed as genomic DNA fragmentation at 1.5 to 13.5 uM incubated for 24 hrs by giemsa staining based micrscopic analysis; assay type: functional, cell-based; conditions: dose 1.5-13.5 µM
SK-HEP1 [17] = assay: Induction of apoptosis in human SK-HEP1 cells assessed as formation of apoptotic bodies at 1.5 to 13.5 uM incubated for 24 hrs by giemsa staining based micrscopic analysis; assay type: functional, cell-based; conditions: dose 1.5-13.5 µM
Huh-7 [18] = assay: Induction of mitochondrial membrane potential depolarization in human Huh-7 cells incubated for 24 hrs by TMRE staining based flow cytometry analysis; assay type: functional, cell-based; conditions: dose 0.9-8.1 µM
Huh-7 [19] = assay: Induction of apoptosis in human Huh-7 cells assessed as inhibition of caspase-3 expression incubated for 48 hrs by Western blotting analysis; assay type: functional, cell-based; conditions: dose 0.9-8.1 µM
Huh-7 [20] = assay: Induction of apoptosis in human Huh-7 cells assessed as increase in Bax expression at 0.9 to 8.1 uM incubated for 48 hrs by Western blotting analysis; assay type: functional, cell-based; conditions: dose 0.9-8.1 µM
Huh-7 [21] = assay: Induction of apoptosis in human Huh-7 cells assessed as increase in cytochrome-C expression at 0.9 to 8.1 uM incubated for 48 hrs by Western blotting analysis; assay type: functional, cell-based; conditions: dose 0.9-8.1 µM
Huh-7 [22] = assay: Induction of apoptosis in human Huh-7 cells assessed as increase in cleaved caspase-9 expression at 0.9 to 8.1 uM incubated for 48 hrs by Western blotting analysis; assay type: functional, cell-based; conditions: dose 0.9-8.1 µM
SK-HEP1 [23] = assay: Induction of apoptosis in human SK-HEP1 cells assessed as inhibition of Bcl-2 expression incubated for 48 hrs by Western blotting analysis; assay type: functional, cell-based; conditions: dose 1.5-13.5 µM
SK-HEP1 [24] = assay: Induction of apoptosis in human SK-HEP1 cells assessed as increase in cytochrome-C expression at 1.5 to 13.5 uM incubated for 48 hrs by Western blotting analysis; assay type: functional, cell-based; conditions: dose 1.5-13.5 µM
Huh-7 [25] = assay: Inhibition of PI3K signalling pathway in human Huh-7 cells assessed as inhibition of PI3K phosphorylation at 0.9 to 8.1 uM measured after 48 hrs by Western blotting analysis; assay type: cell-based; conditions: dose 0.9-8.1 µM
[26] = target: T1, Serine/threonine-protein kinase AKT (Homo sapiens) (UniProt P31751+Q9Y243+P31749); assay: Inhibition of Akt signalling pathway in human Huh-7 cells assessed as inhibition of Akt phosphorylation at 0.9 to 8.1 uM measured after 48 hrs by Western blotting analysis; assay type: cell-based; conditions: dose 0.9-8.1 µM
T1 sequence (P31749 whole entry, looked up): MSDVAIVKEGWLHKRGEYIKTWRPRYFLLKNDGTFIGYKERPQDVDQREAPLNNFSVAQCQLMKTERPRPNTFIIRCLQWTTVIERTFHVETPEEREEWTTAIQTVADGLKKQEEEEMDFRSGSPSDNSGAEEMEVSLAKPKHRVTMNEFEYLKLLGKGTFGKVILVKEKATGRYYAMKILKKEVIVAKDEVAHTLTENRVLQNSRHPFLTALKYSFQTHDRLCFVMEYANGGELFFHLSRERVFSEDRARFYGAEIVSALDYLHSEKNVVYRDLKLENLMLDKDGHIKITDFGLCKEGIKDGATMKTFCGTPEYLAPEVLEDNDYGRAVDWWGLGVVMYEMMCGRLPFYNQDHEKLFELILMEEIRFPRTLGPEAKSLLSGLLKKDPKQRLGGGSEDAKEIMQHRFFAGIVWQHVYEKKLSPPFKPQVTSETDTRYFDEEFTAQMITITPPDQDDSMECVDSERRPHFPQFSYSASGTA
T1 sequence (P31751 whole entry, looked up): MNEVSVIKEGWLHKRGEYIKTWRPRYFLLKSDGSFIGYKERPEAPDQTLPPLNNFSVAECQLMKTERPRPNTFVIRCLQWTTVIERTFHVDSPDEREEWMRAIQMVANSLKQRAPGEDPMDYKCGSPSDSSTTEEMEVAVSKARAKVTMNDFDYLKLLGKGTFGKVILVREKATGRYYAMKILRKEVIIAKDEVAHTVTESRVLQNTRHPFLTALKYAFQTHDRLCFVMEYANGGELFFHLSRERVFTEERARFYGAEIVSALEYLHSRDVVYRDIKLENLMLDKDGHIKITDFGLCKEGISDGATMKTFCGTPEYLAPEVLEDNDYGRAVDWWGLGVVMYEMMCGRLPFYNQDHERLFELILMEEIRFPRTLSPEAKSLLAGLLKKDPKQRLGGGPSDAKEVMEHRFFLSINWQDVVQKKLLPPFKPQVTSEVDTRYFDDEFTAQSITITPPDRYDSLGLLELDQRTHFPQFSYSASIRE
T1 sequence (Q9Y243 whole entry, looked up): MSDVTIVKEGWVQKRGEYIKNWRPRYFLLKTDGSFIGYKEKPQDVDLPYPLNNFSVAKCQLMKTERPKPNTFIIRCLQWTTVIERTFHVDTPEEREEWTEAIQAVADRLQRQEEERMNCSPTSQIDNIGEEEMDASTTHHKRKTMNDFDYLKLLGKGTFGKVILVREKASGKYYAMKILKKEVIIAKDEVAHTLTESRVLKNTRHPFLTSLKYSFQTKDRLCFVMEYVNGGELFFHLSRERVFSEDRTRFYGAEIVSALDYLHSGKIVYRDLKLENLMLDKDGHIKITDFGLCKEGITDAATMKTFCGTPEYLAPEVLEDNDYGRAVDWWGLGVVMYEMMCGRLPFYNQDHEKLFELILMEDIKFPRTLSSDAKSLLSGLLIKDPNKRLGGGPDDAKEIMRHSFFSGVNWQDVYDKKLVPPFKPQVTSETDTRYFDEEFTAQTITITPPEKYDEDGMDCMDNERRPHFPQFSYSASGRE

[27] = target: T1, Serine/threonine-protein kinase AKT (Homo sapiens); assay: Inhibition of Akt signalling pathway in human SK-HEP1 cells assessed as inhibition of Akt phosphorylation at 1.5 to 13.5 uM measured after 48 hrs by Western blotting analysis; assay type: cell-based; conditions: dose 1.5-13.5 µM
[28] = target: Serine/threonine-protein kinase mTOR (Homo sapiens) (UniProt P42345); assay: Inhibition of mTOR signalling pathway in human SK-HEP1 cells assessed as inhibition of mTOR phosphorylation at 1.5 to 13.5 uM measured after 48 hrs by Western blotting analysis; assay type: cell-based; conditions: dose 1.5-13.5 µM
Huh-7 [29] = assay: Antitumor activity against human Huh-7 cells xenografted in BALB/c mouse assessed as reduction in tumor growth at 15 to 30 mg/kg, ip qd measured after 5 days; assay type: functional, organism-based; conditions: dose 15-30 mg/kg, time 5.0 day
Huh-7 [30] = assay: Antitumor activity against human Huh-7 cells xenografted in BALB/c mouse assessed as reduction in tumor volume at 15 to 30 mg/kg, ip qd; assay type: functional, organism-based; conditions: dose 15-30 mg/kg, time 14.0 day, TDE = time-dependent effect
[31] = Toxicity in BALB/c mouse xenografted with human Huh-7 cells assessed as change in body weight at 15 to 30 mg/kg, ip qd measured after 14 days; assay type: organism-based; conditions: in vivo, 336 h, dose 15-30 mg/kg, time 14 day
[32] = Acute toxicity in BALB/c mouse assessed as change in body weight at 650 mg/kg, ip measured after 14 days; assay type: organism-based; conditions: in vivo, 336 h, time 14 day
[33] = Acute toxicity in BALB/c mouse assessed as change in body weight at 650 mg/kg, ip measured at day 2; assay type: organism-based; conditions: in vivo, 48 h, time 2 day

CC(=O)Oc1ccccc1/C=C/c1nccc2ccccc12
IC50 (HCCLM9): 6.14 µM | IC50 (HepG2): 9.76 µM | Activity (Huh-7 [1]): Tde | inhibition (Huh-7 [2]): Active | inhibition (SK-HEP1 [3]): Active | Activity (Huh-7 [4]): Dose-Dependent Effect | Activity (SK-HEP1 [5]): Dose-Dependent Effect | Activity (SK-HEP1 [6]): Dose-Dependent Effect | inhibition (SK-HEP1 [7]): Active | Activity (SK-HEP1 [8]): Active | Activity (Huh-7 [9]): Active | Activity (Huh-7 [10]): Active | Activity (Huh-7 [11]): Active | Activity (Huh-7 [12]): Active | Activity (Huh-7 [13]): Active | Activity (SK-HEP1 [14]): Active | Activity (SK-HEP1 [15]): Active | Activity (SK-HEP1 [16]): Active | Activity (SK-HEP1 [17]): Active | Activity (Huh-7 [18]): Dose-Dependent Effect | Activity (Huh-7 [19]): Dose-Dependent Effect | Activity (Huh-7 [20]): Active | Activity (Huh-7 [21]): Active | Activity (Huh-7 [22]): Active | Activity (SK-HEP1 [23]): Dose-Dependent Effect | Activity (SK-HEP1 [24]): Active | inhibition (Huh-7 [25]): Active | inhibition [26]: Active | inhibition [27]: Active | inhibition [28]: Active | Activity (Huh-7 [29]): Active | Activity (Huh-7 [30]): Tde | Activity [31]: Non-Toxic | Activity [32]: Non-Toxic | Activity [33]: Toxic
